Reference: US8183001B2 (priority 2006, dated 2012)
Where two headings read alike, the source gives them in different places.

What was measured:
[1] = system: mammalian GABAA receptor with α1 subunit XY segment replaced with UNC-49B XY sequence; test: Neurosteroid positive modulation, subunits expressed in Xenopus oocytes; type: cell-based; settings: altered receptor compared to the wild-type receptor
Procedure: It has been shown that one variant of the XY segment conferred high PS sensitivity (the UNC-49C sequence) (Example 1), while another variant of the XY segment conferred low PS sensitivity (the UNC-49B sequence). Subunits of mammalian GABAA receptors also contain an XY segment. It was tested whether neurosteroid sensitivity of mammalian receptors similarly depended on their XY segments. The mammalian XY segment (within the α1 subunit) was replaced with the low-sensitivity UNC-49B XY sequence variant. […] Both positive and negative modulation of GABAA receptors are therapeutically beneficial.

[2] = target: T1, UNC-49B homomer (GABA receptor) (Caenorhabditis elegans, UniProt G5ECD3); test: Pentobarbital enhancement of UNC-49B homomer (FIG. 14B, allosteric regulation of UNC-49); type: cell-based
T1 construct: homopentamer; two-electrode voltage clamp
T1 sequence (G5ECD3 23-506): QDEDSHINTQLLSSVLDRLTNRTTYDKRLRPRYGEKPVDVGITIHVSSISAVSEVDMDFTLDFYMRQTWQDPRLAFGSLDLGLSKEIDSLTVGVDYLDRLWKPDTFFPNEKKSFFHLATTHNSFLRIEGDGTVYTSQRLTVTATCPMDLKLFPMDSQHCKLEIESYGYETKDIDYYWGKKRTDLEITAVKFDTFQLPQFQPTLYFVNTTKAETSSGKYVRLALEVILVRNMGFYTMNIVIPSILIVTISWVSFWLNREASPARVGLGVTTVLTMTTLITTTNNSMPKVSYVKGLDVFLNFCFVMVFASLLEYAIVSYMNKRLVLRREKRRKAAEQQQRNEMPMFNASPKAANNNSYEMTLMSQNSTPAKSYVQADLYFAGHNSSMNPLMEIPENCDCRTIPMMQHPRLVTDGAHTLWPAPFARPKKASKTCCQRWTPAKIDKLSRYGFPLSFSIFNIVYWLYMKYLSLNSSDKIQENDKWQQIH
Procedure: (§1) Like their mammalian homologs, UNC-49 subunits contain a large extracellular amino terminal region, and four transmembrane domains labeled M1-M4.
(§2) Electrophysiology: Plasmids containing wild-type and mutagenized GABAA receptor subunits were linearized and transcribed in vitro using T3 RNA polymerase (mMessage mMachine T3 kit, Ambion, Austin Tex.). UNC-49B mRNA was injected into Xenopus laevis oocytes at 0.5 μg/μl either alone, or in a mixture with 0.5 μg/μl UNC-49C. […] The injection volume ranged between 27.6 nl to 50.6 nl. […] Cells were voltage clamped at −60 mV. All recordings were performed at room temperature.

UNC-49B homomer [3] = target: T2, UNC-49B homomer (Caenorhabditis elegans, UniProt G5ECD3); type: cell-based, C. elegans
T2 sequence (G5ECD3 entry or part of it): as the sequence (G5ECD3 23-506) above
Procedure: as §2

B-β3 chimera = test: Pregnanolone response of B-β3 chimera; type: cell-based
Excerpt: A) Structure of the B-β3 chimera. B) The B-β3 chimera is enhanced by pregnanolone.

UNC-49B homomer [4] = target: T2, UNC-49B homomer; settings: UNC-49B homomers; Bamber et al., 2003; cited from earlier work
UNC-49B/C heteromer [5] = target: T3, UNC-49B/C heteromer (Caenorhabditis elegans, UniProt G5ECD3+G5EE10); settings: UNC-49B/C heteromers; Bamber et al., 2003; cited from earlier work
T3 sequence (G5EE10 entry or part of it): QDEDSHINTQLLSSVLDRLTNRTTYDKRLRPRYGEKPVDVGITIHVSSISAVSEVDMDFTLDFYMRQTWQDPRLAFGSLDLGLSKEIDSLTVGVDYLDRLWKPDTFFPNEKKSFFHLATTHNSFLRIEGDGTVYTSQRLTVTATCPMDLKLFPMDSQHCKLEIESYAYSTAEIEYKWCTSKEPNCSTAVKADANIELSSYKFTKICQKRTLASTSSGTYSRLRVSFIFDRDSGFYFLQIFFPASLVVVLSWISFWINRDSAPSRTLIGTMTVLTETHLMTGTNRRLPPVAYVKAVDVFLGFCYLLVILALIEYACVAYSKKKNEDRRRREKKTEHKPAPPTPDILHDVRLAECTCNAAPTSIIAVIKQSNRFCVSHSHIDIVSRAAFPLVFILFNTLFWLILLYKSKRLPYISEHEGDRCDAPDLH
T3 sequence (G5ECD3 entry or part of it): as the sequence (G5ECD3 23-506) above

UNC-49B-PS7 = type: cell-based, C. elegans; settings: UNC-49B-PS7 versus UNC-49B/C heteromer; at EC50 GABA
Procedure: as §2

Y chimera = Y chimera (Caenorhabditis elegans, UniProt G5ECD3, I265S/I267V/I270L/N259Q/N305R/T269V/V261F/V273I); type: cell-based, C. elegans; settings: Y chimera compared with wild-type UNC-49B and QF-R subunit; at EC50 GABA
Chain of Y chimera (G5ECD3 23-506, stated change not applied): as the sequence (G5ECD3 23-506) above
Procedure: as §2

UNC-49B/C heteromer [6] = target: T3, UNC-49B/C heteromer; type: cell-based; settings: UNC-49B/C heteromers
Procedure: as §2

QF-R = QF-R (Caenorhabditis elegans, UniProt G5ECD3, N259Q/N305R/V261F); type: cell-based, C. elegans; settings: QF-R subunit compared with wild-type UNC-49B and Y chimera; at EC50 GABA
Chain of QF-R (G5ECD3 23-506, stated change not applied): as the sequence (G5ECD3 23-506) above
Procedure: as §2
The conserved residues were tested in the UNC-49C M1 domain in a similar way. […] To test the importance of these conserved residues, they were substituted into an UNC-49B subunit with the linker mutation N305R to create the ‘QF-R’ subunit (FIG. 3c).

[7] = target: T4, UNC-49B/C heteromer (GABA receptor) (Caenorhabditis elegans, UniProt G5ECD3+G5EE10); test: Picrotoxin inhibition of GABA-evoked currents, UNC-49B/C heteromer (FIG. 14A; two-electrode voltage clamp, Xenopus oocytes); type: cell-based; settings: co-application of GABA and picrotoxin
T4 construct: two-electrode voltage clamp
T4 sequence (G5ECD3 23-506): as above
T4 sequence (G5EE10 entry or part of it): as the sequence (G5ECD3 23-506) above
Procedure: as §1, §2

[8] = target: T1, UNC-49B homomer (GABA receptor); test: Picrotoxin inhibition of GABA-evoked currents, UNC-49B homomer (FIG. 14A; two-electrode voltage clamp, Xenopus oocytes); type: cell-based; settings: co-application of GABA and picrotoxin
Procedure: as §1, §2

With `C[C@]12CC[C@@H](O)C[C@@H]1CC[C@@H]1[C@@H]2CC[C@]2(C)[C@@H](C(=O)CO)CC[C@@H]12` [5α-3α-THDOC] the “positive modulation by neurosteroid” value [1] was “greatly-reduced positive modulation”.

`CCCC(C)C1(CC)C(=O)NC(=O)NC1=O` (centres unmarked) [PB, pentobarbital] showed an EC50 [2] of 369 ± 23.1 µM.

In the case of `CCCC(C)C1(CC)C(=O)NC(=O)NC1=O` (centres unmarked) [Pentobarbital], the pentobarbital enhancement (UNC-49B homomer [3]) is reported as “more strongly than UNC-49B/C heteromers”.

With `CC(=O)[C@H]1CC[C@H]2[C@@H]3CC[C@@H]4C[C@H](O)CC[C@]4(C)[C@H]3CC[C@]12C` [pregnanolone] the “direct activation by pregnanolone” value (UNC-49B homomer [3]; UNC-49B homomer) was “fails to directly activate”, the pregnanolone modulation (UNC-49B homomer [3]; UNC-49B homomer) was “inhibits, rather than enhances” and the “direct activation by pregnanolone” value (B-β3 chimera) was “directly activated”. The pregnanolone modulation (B-β3 chimera) was “enhanced”, the pregnanolone modulation (UNC-49B homomer [4]) was “inhibited” and the pregnanolone modulation (UNC-49B/C heteromer [5]) was “inhibited”.

In the case of picrotoxin [listing 1 of 2 here], the picrotoxin inhibition (UNC-49B homomer [3]; UNC-49B homomers) is reported as “strongly inhibits”, the picrotoxin sensitivity (UNC-49B homomer [3]; wild-type UNC-49B compared with QF-R subunit and Y chimera (UNC-49B curve from Bamber et al. 2003)) is reported as “identical” and the “fold difference in picrotoxin sensitivity” value (UNC-49B-PS7) is reported as 50 fold. The picrotoxin sensitivity (Y chimera) was “identical”, the picrotoxin inhibition (UNC-49B/C heteromer [6]) was “only weakly inhibits” and the picrotoxin sensitivity (QF-R) was “identical”.

picrotoxin [listing 2 of 2 here] gave an IC50 [7] of 166 ± 42 µM and an IC50 [8] of 0.89 ± 0.15 µM.
